{
  "source": "patent US9751826B2",
  "about": "“4-vinyl-2-cyclopenten-1-one derivatives, the production thereof, and the use of same as an antibiotic agent” (Centre National de la Recherche Scientifique (CNRS), priority 2014, dated 2017)",
  "type_in_all_cases": "cell-based",
  "key": {"[1]": {"test_system": "Enterobacter cloacae (ATCC 13047)", "experiment": "Antibiotic test, inhibition zone technique", "experimental": "(§1) Once purified, the molecule of the compound of formula (Ia) is redissolved in suitable solvents and at a suitable concentration, preferentially in dimethyl sulfoxide (DMSO) at a concentration of 10 mg/ml. This initial solution is then diluted according to the various biological tests to be performed. Two series of tests were carried out. The molecule of the compound of formula (Ia) was used in antibiotic tests, employing the inhibition zone technique, on various Gram-positive and Gram-negative bacteria, in the amount of 100 μg. In parallel, similar tests are carried out with control antibiotics in varying amounts depending on the antibiotic, either 10 μg or 30 μg."}, "[2]": {"test_system": "Bacillus subtilis (ATCC 6633)", "experiment": "Antibiotic test, inhibition zone technique", "experimental": "as §1"}, "[3]": {"test_system": "Streptococcus pneumoniae (ATCC 49619)", "experiment": "Antibiotic test, inhibition zone technique", "experimental": "as §1"}, "[4]": {"test_system": "Staphylococcus aureus (ATCC 25923)", "experiment": "Antibiotic test, inhibition zone technique", "experimental": "as §1"}, "[5]": {"test_system": "Escherichia coli (ATCC 25922)", "experiment": "Antibiotic test, inhibition zone technique", "experimental": "as §1"}, "[6]": {"test_system": "Acinetobacter baumannii (ATCC 19606)", "experiment": "Antibiotic test, inhibition zone technique", "experimental": "as §1"}, "[7]": {"test_system": "Micrococcus luteus (ATCC 10240)", "experiment": "Antibiotic test, inhibition zone technique", "experimental": "as §1"}, "[8]": {"test_system": "Klebsiella pneumoniae (ATCC 1001)", "experiment": "Antibiotic test, inhibition zone technique", "experimental": "as §1"}, "[9]": {"test_system": "KB cancer cell line (carcinoma)", "experiment": "Cytotoxicity test on KB cancer cell line", "experimental": "(§2) Once purified, the molecule of the compound of formula (Ia) is redissolved in suitable solvents and at a suitable concentration, preferentially in dimethyl sulfoxide (DMSO) at a concentration of 10 mg/ml. This initial solution is then diluted according to the various biological tests to be performed. Two series of tests were carried out. Tests for cytotoxicity on a KB cancer cell line (carcinoma) and an equivalent line of non-cancerous MRC5 cells. The following table presents the percentage of inhibition of growth by the molecule of the compound of formula (Ia) at concentrations of 1 and 10 micromolar."}, "[10]": {"test_system": "various target pathogenic microorganisms", "experiment": "Antibiotic activity at 1 to 100 μg (FIG. 7)", "details": "amounts of 1 to 100 μg", "experimental": "The molecule of the compound of formula (Ia) was used in antibiotic tests, employing the inhibition zone technique, on various Gram-positive and Gram-negative bacteria, in the amount of 100 μg. In parallel, similar tests are carried out with control antibiotics in varying amounts depending on the antibiotic, either 10 μg or 30 μg.\nFIG. 7 illustrates the antibiotic activity of the compound of formula (Ia) on various target pathogenic microorganisms in amounts of 1 to 100 μg in comparison with chloramphenicol and gentamycin at 30 μg and 10 μg, respectively. […] Indeed, inhibition by 1 μg of the compound of formula (Ia) is equivalent to that obtained with 30 μg of chloramphenicol. The same observations and conclusions can be made for all the strains that are sensitive to the compound of formula (Ia) as shown in FIG. 7."}, "MRC5 cells": {"test_system": "MRC5 cells", "experiment": "Cytotoxicity test on non-cancerous MRC5 cells", "experimental": "as §2"}, "[11]": {"test_system": "Pseudomonas aeruginosa (ATCC 27853)", "experiment": "Antibiotic test, inhibition zone technique", "details": "10 μg deposited", "experimental": "as §1"}},
  "data": [
    {"molecule": "COC(=O)/C=C/[C@@]1(O)C=CC(=O)C1", "note": "[compound of formula (Ia)]", "values": [
      {"measurement": "Inhibition zone for 100 μg of the compound of formula (Ia)", "setting": "[1]; 100 μg deposited", "result": 1.2, "unit": "cm"},
      {"measurement": "Inhibition zone for 100 μg of the compound of formula (Ia)", "setting": "[2]; 100 μg deposited", "result": 2.7, "unit": "cm"},
      {"measurement": "Inhibition zone for 100 μg of the compound of formula (Ia)", "setting": "[3]; 100 μg deposited", "result": 2.0, "unit": "cm"},
      {"measurement": "Inhibition zone for 100 μg of the compound of formula (Ia)", "setting": "[4]; 100 μg deposited", "result": 3.0, "unit": "cm"},
      {"measurement": "Inhibition zone for 100 μg of the compound of formula (Ia)", "setting": "[5]; 100 μg deposited", "result": 2.7, "unit": "cm"},
      {"measurement": "amount giving inhibition equivalent to that of 30 μg of chloramphenicol", "setting": "[5]; FIG. 7", "result": 1, "unit": "µg"},
      {"measurement": "antibiotic activity compared with chloramphenicol", "setting": "[5]; FIG. 7, 1 to 100 μg vs chloramphenicol 30 μg", "result": "much higher activity than that of chloramphenicol"},
      {"measurement": "Inhibition zone for 100 μg of the compound of formula (Ia)", "setting": "[6]; 100 μg deposited", "result": 3.2, "unit": "cm"},
      {"measurement": "Inhibition zone for 100 μg of the compound of formula (Ia)", "setting": "[7]; 100 μg deposited", "result": 3.2, "unit": "cm"},
      {"measurement": "Inhibition zone for 100 μg of the compound of formula (Ia)", "setting": "[8]; 100 μg deposited", "result": 2.9, "unit": "cm"},
      {"measurement": "cytotoxicity against tumor cells", "setting": "[9]; 1 and 10 micromolar", "result": "no cytotoxicity is observed"},
      {"measurement": "inhibition at 10 µM", "setting": "[9]; Homo sapiens, KB cells, 10^−5 M, read-out: percentage of inhibition of growth", "result": 0, "unit": "%"},
      {"measurement": "inhibition at 1 µM", "setting": "[9]; Homo sapiens, KB cells, 10^−6 M, read-out: percentage of inhibition of growth", "result": 0, "unit": "%"},
      {"measurement": "dose dependence of antibiotic activity", "setting": "[10]", "result": "dose-dependent"},
      {"measurement": "cytotoxicity against healthy cells", "setting": "MRC5 cells; 1 and 10 micromolar", "result": "no cytotoxicity is observed"},
      {"measurement": "inhibition at 10 µM", "setting": "MRC5 cells; Homo sapiens, 10^−5 M, read-out: percentage of inhibition of growth", "result": "2 ± 12", "unit": "%"},
      {"measurement": "inhibition at 1 µM", "setting": "MRC5 cells; Homo sapiens, 10^−6 M, read-out: percentage of inhibition of growth", "result": "1 ± 3", "unit": "%"}
    ]},
    {"molecule": "Penicillin [reference compound]", "values": [
      {"measurement": "Inhibition zone by the reference antibiotics", "setting": "[3]; 30 μg deposited", "result": 3.5, "unit": "cm"}
    ]},
    {"molecule": "O=C(N[C@H](CO)[C@H](O)c1ccc([N+](=O)[O-])cc1)C(Cl)Cl", "note": "[Chloramphenicol, reference compound]", "values": [
      {"measurement": "Inhibition zone by the reference antibiotics", "setting": "[1]; 30 μg deposited", "result": 1.5, "unit": "cm"},
      {"measurement": "Inhibition zone by the reference antibiotics", "setting": "[5]; 30 μg deposited", "result": 1.0, "unit": "cm"},
      {"measurement": "Inhibition zone by the reference antibiotics", "setting": "[7]; 30 μg deposited", "result": 3.2, "unit": "cm"},
      {"measurement": "Inhibition zone by the reference antibiotics", "setting": "[8]; 30 μg deposited", "result": 2.5, "unit": "cm"}
    ]},
    {"molecule": "Gentamycin [reference compound]", "values": [
      {"measurement": "Inhibition zone by the reference antibiotics", "setting": "[2]; 10 μg deposited", "result": 1.2, "unit": "cm"},
      {"measurement": "Inhibition zone by the reference antibiotics", "setting": "[4]; 10 μg deposited", "result": 1.2, "unit": "cm"},
      {"measurement": "Inhibition zone by the reference antibiotics", "setting": "[6]; 10 μg deposited", "result": 0.9, "unit": "cm"},
      {"measurement": "Inhibition zone by the reference antibiotics", "setting": "[11]", "result": 1.3, "unit": "cm"}
    ]}
  ]
}
